One block for each compound: values may come before it.
How the values were obtained:
[1] = Study 206281: plasma PK of temsavir after FTR alone or with DRV/r, ETR, or DRV/r plus ETR; format: in vivo, human
Description: (§1) Participants were randomly assigned to one of three cohorts per a computer-generated randomization scheme. • Cohort 1: Participants received FTR at 600 mg twice daily (BID) on days 1 to 4. […] After a 2-day washout (days 5 and 6), participants received ETR at 200 mg BID for 10 days (days 7 to 16) followed by FTR at 600 mg BID with ETR at 200 mg BID for 10 days (days 17 to 26). • Cohort 3: Participants received FTR at 600 mg BID on days 1 to 4.
(§2) Eligible participants were admitted to the clinical facility on day −1 of each study. […] Physical examinations, measurements of vital signs, 12-lead ECGs, and clinical laboratory evaluations were performed, and participants were closely monitored for AEs and SAEs, throughout both studies.
(§3) (i) Bioanalytical methods and PK analysis. […] The lower limit of quantification and the upper limit of quantification for the analysis of TMR in both studies were 5 ng/mL and 5,000 ng/mL, respectively.
(§4) (ii) PK analysis. For both studies, individual participant PK parameter values were derived by noncompartmental methods with a validated PK analysis program using actual times. […] Cmax, Tmax, C12, and C24 were recorded directly from experimental observations and AUCtau was calculated by mixed log-linear trapezoidal summations.
(§5) SAS software version 9.2 (SAS Institute, Inc., Cary, North Carolina) was used for all statistical analyses, tabulations, and graphical presentations. For all treatment comparisons, a linear mixed-effect model was fitted to the log-transformed data with treatment as fixed effect and measurements within each participant as repeated measures, for use in the estimation of effects and the construction of CIs. Point estimates and 90% CIs for differences on the log scale were exponentiated to obtain estimates for GMRs and respective 90% CIs on the original scale. […] FTR administered alone was the reference treatment for both studies.

[2] = Study 206285: plasma PK of temsavir after FTR alone or with DRV/c or COBI; format: in vivo, human
Description: as §2, §3, §4, §5

[3] = QT prolongation at supratherapeutic FTR dose; format: in vivo, human; details: supratherapeutic FTR 2,400 mg BID
P-glycoprotein (P-gp) = system: P-glycoprotein (P-gp); parameters: method as in earlier work; details: preclinical studies; cited from earlier work
[4] = system: breast cancer resistance protein (BCRP); details: not told; cited from earlier work
[5] = Study 206281: plasma PK of DRV, RTV and ETR with or without FTR
Description: as §1, §2, §3, §4, §5

[6] = Study 206281: safety, adverse events; format: in vivo, human; details: A fostemsavir 600 mg BID, B DRV/r 600/100 mg BID, C ETR 200 mg BID
Description: as §1, §2

HIV-1 = system: HIV-1; parameters: method as in PMID 32212519; details: through 8 days of FTR functional monotherapy with failing regimen; HTE HIV-1-infected participants, randomized cohort; P < 0.0001; cited from earlier work
[7] = Study 206285: safety, adverse events
Description: Participants were sequentially enrolled to two cohorts. • Cohort 1: Participants received FTR at 600 mg BID on days 1 to 4. […] Participants then received FTR at 600 mg BID plus COBI at 150 mg QD on days 5 to 14 (Fig. 4B).

[8] = FTR coadministered with DRV/r and ETR vs FTR alone, study 206281 cohort 3
[9] = FTR coadministered with DRV/r vs FTR alone, study 206281 cohort 1
[10] = FTR coadministered with ETR vs FTR alone, study 206281 cohort 2
[11] = FTR coadministered with ETR vs FTR alone, study 206281 cohort 2, listed as TMR
[12] = FTR coadministered with COBI vs FTR alone, study 206285 cohort 2
[13] = FTR coadministered with DRV and COBI (DRV/c) vs FTR alone, study 206285 cohort 1
[14] = FTR with DRV/r + ETR vs DRV/r plus ETR, study 206281 cohort 3
[15] = FTR plus DRV/r plus ETR vs DRV/r plus ETR, study 206281 cohort 3
[16] = FTR with DRV/r vs DRV/r, study 206281 cohort 1
[17] = DRV/r plus ETR with FTR vs DRV/r plus ETR, study 206281 cohort 3
[18] = ETR with FTR vs ETR alone, study 206281 cohort 2

- increase in TMR AUCtau [1, 8]: 34%
- increase in TMR C12 (Ctau in abstract) [1, 8]: 33%
- increase in TMR Cmax [1, 8]: 53%
- increase in TMR AUCtau [1, 9]: 63%
- increase in TMR C12 (Ctau in abstract) [1, 9]: 88%
- increase in TMR Cmax [1, 9]: 52%
- decrease in TMR exposures ([1]; FTR coadministered with ETR): approximately 50%
- decrease in TMR AUCtau [1, 10]: 50%
- decrease in TMR C12 (Ctau in abstract) [1, 10]: ~50%
- decrease in TMR Cmax [1, 10]: ~50%
- decrease in TMR C12 (Ctau in abstract) [1, 11]: 52%
- decrease in TMR Cmax [1, 11]: 48%
- increase in TMR AUCtau [2, 12]: 93%
- increase in TMR C12 (Ctau in abstract) [2, 12]: 136%
- increase in TMR Cmax [2, 12]: 71%
- increase in TMR AUCtau [2, 13]: 97%
- increase in TMR C12 (Ctau in abstract) [2, 13]: 124%
- increase in TMR Cmax [2, 13]: 79%
Compound: COc1cnc(-n2cnc(C)n2)c2[nH]cc(C(=O)C(=O)N3CCN(C(=O)c4ccccc4)CC3)c12 [Temsavir]
- fold by which exposures with TMR Cmax-driven QT prolongation exceed geometric mean TMR exposures of the current studies [3]: > 2 fold
- P-glycoprotein (P-gp) substrate (P-glycoprotein (P-gp)): substrate
- BCRP substrate [4]: substrate

- decrease in DRV AUCtau [5, 14]: 6%
- decrease in DRV C12 [5, 14]: 12%
- decrease in DRV Cmax [5, 14]: 5%
Compound: CC(C)CN(C[C@@H](O)[C@H](Cc1ccccc1)NC(=O)O[C@H]1CO[C@H]2OCC[C@H]21)S(=O)(=O)c1ccc(N)cc1 [DRV]

- increase in RTV AUCtau [5, 15]: 9%
- increase in RTV C12 [5, 15]: 7%
- increase in RTV Cmax [5, 15]: 14%
- change in RTV Cmax [5, 16]: no meaningful change
- increase in RTV AUCtau [5, 16]: 15%
- increase in RTV C12 [5, 16]: 19%
Compound: CC(C)c1nc(CN(C)C(=O)N[C@H](C(=O)N[C@@H](Cc2ccccc2)C[C@H](O)[C@H](Cc2ccccc2)NC(=O)OCc2cncs2)C(C)C)cs1 [RTV]

- increase in ETR AUCtau [5, 17]: 28%
- increase in ETR C12 [5, 17]: 28%
- increase in ETR Cmax [5, 17]: 18%
- increase in ETR AUCtau [5, 18]: 11%
- increase in ETR C12 [5, 18]: 14%
- increase in ETR Cmax [5, 18]: 11%
- AUC ([5]; human, plasma, oral, 200 mg): 7820 ng·h/mL
- Cmax ([5]; human, plasma, oral, 200 mg): 846 ng/mL
- concentration at 12 h ([5]; human, plasma, oral, 200 mg): 457 ng/mL
Compound: Cc1cc(C#N)cc(C)c1Oc1nc(Nc2ccc(C#N)cc2)nc(N)c1Br [ETR, reference compound]
- Abdominal distension [6]: 0 No. of patients (%)
- Aphthous stomatitis [6]: 0 No. of patients (%)
- Back pain [6]: 0 No. of patients (%)
- Diarrhea [6]: 0 No. of patients (%)
- Dizziness [6]: 0 No. of patients (%)
- Drug eruption [6]: 2 (14.3) No. of patients (%)
- Dry mouth [6]: 0 No. of patients (%)
- Fatigue [6]: 0 No. of patients (%)
- Headache [6]: 0 No. of patients (%)
- Muscle spasms [6]: 0 No. of patients (%)
- Nausea [6]: 0 No. of patients (%)
- Pruritus [6]: 0 No. of patients (%)
- Pruritus generalized [6]: 1 (7.1) No. of patients (%)
- Somnolence [6]: 0 No. of patients (%)
- Subjects with any AE [6]: 4 (28.6) No. of patients (%)

Compound: COc1cnc(-n2cnc(C)n2)c2c1c(C(=O)C(=O)N1CCN(C(=O)c3ccccc3)CC1)cn2COP(=O)(O)O [Fostemsavir]
- Abdominal distension [6]: 0 No. of patients (%)
- Aphthous stomatitis [6]: 0 No. of patients (%)
- Back pain [6]: 0 No. of patients (%)
- Diarrhea [6]: 0 No. of patients (%)
- Dizziness [6]: 0 No. of patients (%)
- Drug eruption [6]: 0 No. of patients (%)
- Dry mouth [6]: 1 (2.2) No. of patients (%)
- Fatigue [6]: 0 No. of patients (%)
- Headache [6]: 1 (2.2) No. of patients (%)
- Muscle spasms [6]: 0 No. of patients (%)
- Nausea [6]: 1 (2.2) No. of patients (%)
- Pruritus [6]: 1 (2.2) No. of patients (%)
- Pruritus generalized [6]: 0 No. of patients (%)
- Somnolence [6]: 0 No. of patients (%)
- Subjects with any AE [6]: 6 (13.0) No. of patients (%)
- adjusted mean decline in HIV-1 RNA (HIV-1): 0.8 log10 copies/mL
- Back pain ([7]; study 206285 cohort 1): 1 (6.3) No. of patients (%)
- Constipation ([7]; study 206285 cohort 1): 0 No. of patients (%)
- Cough ([7]; study 206285 cohort 1): 0 No. of patients (%)
- Headache ([7]; study 206285 cohort 1): 3 (18.8) No. of patients (%)
- Myalgia ([7]; study 206285 cohort 1): 0 No. of patients (%)
- Nausea ([7]; study 206285 cohort 1): 1 (6.3) No. of patients (%)
- Neutrophil count decreased ([7]; study 206285 cohort 1): 0 No. of patients (%)
- Oropharyngeal pain ([7]; study 206285 cohort 1): 2 (12.5) No. of patients (%)
- Pain ([7]; study 206285 cohort 1): 0 No. of patients (%)
- Participants with AE ([7]; study 206285 cohort 1): 6 (37.5) No. of patients (%)
- Vomiting ([7]; study 206285 cohort 1): 1 (6.3) No. of patients (%)
- WBC decreased ([7]; study 206285 cohort 1): 0 No. of patients (%)
- Back pain ([7]; study 206285 cohort 2): 1 (6.3) No. of patients (%)
- Constipation ([7]; study 206285 cohort 2): 0 No. of patients (%)
- Cough ([7]; study 206285 cohort 2): 0 No. of patients (%)
- Headache ([7]; study 206285 cohort 2): 1 (6.3) No. of patients (%)
- Myalgia ([7]; study 206285 cohort 2): 0 No. of patients (%)
- Nausea ([7]; study 206285 cohort 2): 0 No. of patients (%)
- Neutrophil count decreased ([7]; study 206285 cohort 2): 0 No. of patients (%)
- Oropharyngeal pain ([7]; study 206285 cohort 2): 0 No. of patients (%)
- Pain ([7]; study 206285 cohort 2): 0 No. of patients (%)
- Participants with AE ([7]; study 206285 cohort 2): 3 (18.8) No. of patients (%)
- Vomiting ([7]; study 206285 cohort 2): 0 No. of patients (%)
- WBC decreased ([7]; study 206285 cohort 2): 0 No. of patients (%)

Source: article PMC9017385, “Pharmacokinetics of Temsavir, the Active Moiety of the HIV-1 Attachment Inhibitor Prodrug, Fostemsavir, Coadministered with Cobicistat, Etravirine, Darunavir/Cobicistat, or Darunavir/Ritonavir with or without Etravirine in Healthy Participants” (Antimicrobial Agents and Chemotherapy, 2022)
